Assay results as given in patent publication EP0006718A1, “1.2.4-Triazolidine-3.5-dione derivatives, process for their preparation and pharmaceutical compositions containing them” (BEECHAM GROUP PLC, priority 1978, dated 1980).

How the values were obtained:
[1] = test system: indomethacin induced gastric damage; assay: Anti-ulcer activity: inhibition of indomethacin induced gastric damage (method of Eleghe); format: in vivo; conditions: Rattus norvegicus, 30 minutes before 15mg/kg indomethacin s.c., rats sacrificed 4 hours later
Protocol: Anti-ulcer activity of the compound of Example 4 was assessed by the inhibition of indomethacin induced gastric damage in the rat according to the method of Eleghe (1974) Israeli J. Med. Sci. 10. 1451. Rats were starved overnight given 15mg/kg indomethacin subcutaneously and sacrificed 4 hours later. Stomachs were reflated with n. saline, cut along the greater curvature pinned out and scored for gastric damage.
Groups of 7 rats were used for each treatment and the test compound or vehicle was administered 30 minutes prior to giving the indomethacin. Varying doses of test compound were administered orally and control groups receiving vehicle only were set up simultaneously. Mean values for each treatment were obtained and the Mann Witney test applied for significance of difference between the values obtained with the treatments.

[2] = test system: 5-hydroxy-tryptamine or histamine induced bronchoconstriction; assay: Broncho-dilation activity: inhibition of induced bronchoconstriction (Konzett-Rossler preparation); format: in vivo; conditions: Cavia porcellus, iv; anaesthetised artificially respired guinea-pig; read-out: ED 50 value for inhibition of bronchoconstriction
From the text: The compound of Example 4 was examined for its ability to inhibit 5-hydroxy-tryptamine or histamine induced bron- choconstrictioh in the anaesthetised artifically respired guinea-pig (Konzett-Rossler preparation).

## Cn1c(=O)n(CCCCCCC(=O)O)n(CCC(C)(O)COc2ccccc2)c1=O (stereo not shown) [Example 4, 1-(6'-carboxyhexyl)-2-(3"-hydroxy-3"-methyl-4"-phenoxybutyl)-4-methyl'-1,2,4-triazolidine-3,5-dione]
[1]; 25 mg/kg p.o.
  inhibition at 25 mg/kg: 56%
[1]; 50 mg/kg p.o.
  inhibition at 50 mg/kg: 50%
[1]; 100 mg/kg p.o.
  inhibition at 100 mg/kg: 92%
[2]
  ED50: 0.039 mg/kg
